We go through 21 compounds from patent publication US12139473B2, “Substituted-N-heteroaryl compounds and uses thereof” (Bionomics Limited, priority 2019, dated 2024).

This assay deals with T1, hKv3.1 (Homo sapiens, UniProt P48547).
T1 construct: expressed in transfected cells
T1 sequence (P48547 1-511): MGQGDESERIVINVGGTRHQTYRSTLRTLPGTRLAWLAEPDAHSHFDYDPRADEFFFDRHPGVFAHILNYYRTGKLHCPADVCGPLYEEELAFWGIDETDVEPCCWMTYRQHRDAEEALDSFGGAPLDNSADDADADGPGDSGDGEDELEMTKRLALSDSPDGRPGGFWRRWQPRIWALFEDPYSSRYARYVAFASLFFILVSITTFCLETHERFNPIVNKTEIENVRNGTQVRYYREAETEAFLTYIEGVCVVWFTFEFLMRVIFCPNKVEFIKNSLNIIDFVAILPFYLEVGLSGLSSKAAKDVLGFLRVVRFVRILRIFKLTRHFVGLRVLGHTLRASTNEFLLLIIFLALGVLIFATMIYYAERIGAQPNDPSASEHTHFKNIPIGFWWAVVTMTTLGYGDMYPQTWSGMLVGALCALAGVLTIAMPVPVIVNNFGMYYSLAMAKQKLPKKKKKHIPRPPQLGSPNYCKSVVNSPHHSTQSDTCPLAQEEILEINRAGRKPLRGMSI
The assay is described as follows: Automated patch clamp electrophysiology (Patchliner), CHO/Kv3.1 cells. It is filed as cell-based. The conditions noted are these: 10 μM compound, hKv3.1 in CHO-K1, whole-cell; for Kv3.1 Activity at 10 μM Potentiation (%): peak current at voltage step of −10 mV vs vehicle (0.33% DMSO); for Kv3.1 Activity at 10 μM Voltage Shift (mV): voltage shift of the IV curve at V1/2. How it is done:
hKv3.1, hKv3.2, hKv3.3, and hKv3.4 were stably expressed in CHO-K1 (Chinese hamster ovary) cells and kept under constant antibiotic selection. For in vitro assays, cells were maintained in appropriate growth medium at 37° C. and 5% CO2 in a humidified incubator.
hKv3.X expressing cells were plated in T-25 flasks for 3-4 days at 37° C. (no selection antibiotic) prior to use and grown to 80% confluence. Cells were washed twice with PBS (calcium and magnesium free) and detached with a 5-minute treatment at 37° C. with 2-3 mls of Accutase®. Cells were collected, and flask was washed in CHO-SFM II media (Life Technologies Gibco), centrifuged for 2 minutes at ˜110×g and resuspended to obtain a single cell suspension of ˜2-3×10^6 cells/ml.
The intracellular solution contained the following (in mM): KCl 50, NaCl 10, KF 60, EGTA 20, HEPES 10, adjusted to pH 7.2 with KOH and an osmolarity of 285 mOsmol. Seal enhancer was purchased from Nanion (80 mM NaCl, 3 mM KCl, 10 mM MgCl2, 35 mM CaCl2), 10 mM HEPES, pH7.4, 298 mOsmol. The external solution contained (in mM): NaCl 140, KCl 4, CaCl2) 2, MgCl2 1, HEPES 10, Glucose 5, adjusted to pH7.4 and an osmolarity of 298 mOsmol.
All compounds were initially tested at 10 uM at a final DMSO concentration of 0.33%. Compounds were dissolved in dimethylsulfoxide (DMSO) at a stock concentration of 30 mM. The compound was further diluted 1:10 to give a stock concentration of 3 mM in DMSO. The final assay solution was diluted 1:300 in External solution to give a final concentration of 10 uM. For the DMSO Control Buffer 30 uL of DMSO was added to 10 mL buffer.
All electrophysiological recordings were performed at ambient temperature (21-23° C.) using automated patch clamp (Patchliner, Nanion Technologies GmbH) in the whole-cell configuration.
Cell membrane potentials were held at −80 mV, and currents were evoked by voltage steps (1000 ms duration) from −60 to +60 mV in 10 mV increments. This was performed first with vehicle (0.33% DMSO) and then with 10 uM compound, after a 3-minute incubation period. Data was taken from 4 cells per assay.
The recordings were analysed and selected using peak current amplitude (>100 pA at the −10 mV voltage step) in the absence of compound to eliminate unsuitable cells from analysis. Peak current amplitude was measured and recorded for each voltage step and data was normalised to the maximum current at +60 mV. The normalised Kv3.x currents following addition of the compound were then compared with the currents recorded prior to compound addition (vehicle control). Positive modulation was determined as % potentiation at the voltage step of −10 mV=[current (cmpd)/current (veh)]*100−100. % potentiation≥50% was considered acceptable. In addition, voltage shift of the IV curve at V1/2 was measured. V1/2 of ≥−5 mV was also considered acceptable. IV curves were plotted in GraphPad Prism (software version 6.0) and fitted with a Boltzmann equation, where V1/2 is the voltage at half-maximal activation.

As to `CCc1cc(Oc2cc(N3C(=O)NC(C)(C)C3=O)ncn2)ccc1C` [Example 30, 3-[6-(3-ethyl-4-methylphenoxy)pyrimidin-4-yl]-5,5-dimethyl-imidazolidine-2,4-dione], the “Kv3.1 Activity at 10 μM Potentiation (%)” value is given as 63% and the “Kv3.1 Activity at 10 μM Voltage Shift (mV)” value is on record as −2.1 mV.
With `CC1(C)NC(=O)N(c2cc(Oc3ccc4c(c3)CCC4)ncn2)C1=O` [Example 31, 3-(6-indan-5-yloxypyrimidin-4-yl)-5,5-dimethyl-imidazolidine-2,4-dione], the “Kv3.1 Activity at 10 μM Potentiation (%)” value was 65% and the “Kv3.1 Activity at 10 μM Voltage Shift (mV)” value is on record as −3.3 mV.
With `CC1(C)NC(=O)N(c2cc(Oc3cccc4c3CCC4)ncn2)C1=O` [Example 32, 3-(6-indan-4-yloxypyrimidin-4-yl)-5,5-dimethyl-imidazolidine-2,4-dione], the “Kv3.1 Activity at 10 μM Potentiation (%)” value worked out at 13% and the “Kv3.1 Activity at 10 μM Voltage Shift (mV)” value is −1.3 mV.
Turning to `CC1(C)NC(=O)N(c2cc(Oc3ccc4c(c3)OCCC4)ncn2)C1=O` [Example 33, 3-(6-chroman-7-yloxypyrimidin-4-yl)-5,5-dimethyl-imidazolidine-2,4-dione], the “Kv3.1 Activity at 10 μM Potentiation (%)” value amounted to 33% and the “Kv3.1 Activity at 10 μM Voltage Shift (mV)” value is recorded as −1.6 mV.
In the case of `COc1c(C)cc(Oc2cc(N3C(=O)NC(C)(C)C3=O)ncn2)cc1C` [Example 35, 3-[6-(4-methoxy-3,5-dimethyl-phenoxy)pyrimidin-4-yl]-5,5-dimethyl-imidazolidine-2,4-dione], the “Kv3.1 Activity at 10 μM Potentiation (%)” value was −10% and the “Kv3.1 Activity at 10 μM Voltage Shift (mV)” value is −0.4 mV.
The corresponding values for `CCOc1cc(Oc2cc(N3C(=O)NC(C)(C)C3=O)ncn2)ccc1C` [Example 36, 3-[6-(3-ethoxy-4-methyl-phenoxy)pyrimidin-4-yl]-5,5-dimethyl-imidazolidine-2,4-dione] are 17% and −3.3 mV.
In the same order, the values of `Cc1ccc(Oc2cc(N3C(=O)NC(C)(C)C3=O)ncn2)cc1OCC1CC1` [Example 37, 3-[6-[3-(cyclopropylmethoxy)-4-methyl-phenoxy]pyrimidin-4-yl]-5,5-dimethyl-imidazolidine-2,4-dione] are 16% and −1.0 mV.
As for `Cc1ccc(Oc2cc(N3C(=O)NC(C)(C)C3=O)ncn2)cc1OC(C)C` [Example 38, 3-[6-(3-isopropoxy-4-methyl-phenoxy)pyrimidin-4-yl]-5,5-dimethyl-imidazolidine-2,4-dione], the “Kv3.1 Activity at 10 μM Potentiation (%)” value is listed as 18% and the “Kv3.1 Activity at 10 μM Voltage Shift (mV)” value is on record as −2.0 mV.
With `Cc1ccc(Oc2cc(N3C(=O)NC(C)(C)C3=O)ncn2)cc1OCC(C)C` [Example 39, 3-[6-(3-isobutoxy-4-methyl-phenoxy)pyrimidin-4-yl]-5,5-dimethyl-imidazolidine-2,4-dione], the “Kv3.1 Activity at 10 μM Potentiation (%)” value amounted to 13% and the “Kv3.1 Activity at 10 μM Voltage Shift (mV)” value was −2.1 mV.
Consider `COc1cccc(Oc2cc(N3C(=O)NC(C)(C)C3=O)ncn2)c1C(C)C` [Example 40, 3-[6-(2-isopropyl-3-methoxy-phenoxy)pyrimidin-4-yl]-5,5-dimethyl-imidazolidine-2,4-dione], for which the “Kv3.1 Activity at 10 μM Potentiation (%)” value amounted to 23% and the “Kv3.1 Activity at 10 μM Voltage Shift (mV)” value was −2.1 mV.
`COc1cc(Oc2cc(N3C(=O)NC(C)(C)C3=O)ncn2)ccc1C(F)(F)F` [Example 42, 3-[6-[3-methoxy-4-(trifluoromethyl)phenoxy]pyrimidin-4-yl]-5,5-dimethyl-imidazolidine-2,4-dione]: the “Kv3.1 Activity at 10 μM Potentiation (%)” value is reported as 11% and the “Kv3.1 Activity at 10 μM Voltage Shift (mV)” value is “+2.0 mV”.
In the same order, the values of `Cc1ccc(Oc2cc(N3C(=O)NC(C)(C)C3=O)ncn2)cc1OC(F)(F)F` [Example 44, 3-[6-[4-methyl-3-(trifluoromethoxy)phenoxy]pyrimidin-4-yl]-5,5-dimethyl-imidazolidine-2,4-dione] are 33% and −2.9 mV.
In the case of `CC1(C)NC(=O)N(c2cc(Oc3ccc4c(c3)OC(F)(F)O4)ncn2)C1=O` [Example 45, 3-[6-[(2,2-difluoro-1,3-benzodioxol-5-yl)oxy]pyrimidin-4-yl]-5,5-dimethyl-imidazolidine-2,4-dione], the “Kv3.1 Activity at 10 μM Potentiation (%)” value is 19% and the “Kv3.1 Activity at 10 μM Voltage Shift (mV)” value was −1.7 mV.
Regarding `CC[C@@]1(C)NC(=O)N(c2nccc(Oc3ccc(C)c(OC)c3)n2)C1=O` [Example 48, (5R)-5-ethyl-3-[4-(3-methoxy-4-methyl-phenoxy)pyrimidin-2-yl]-5-methyl-imidazolidine-2,4-dione], the “Kv3.1 Activity at 10 μM Potentiation (%)” value was found to be 32% and the “Kv3.1 Activity at 10 μM Voltage Shift (mV)” value was −2.1 mV.
Turning to `COc1cc(Oc2cncc(N3C(=O)NC(C)(C)C3=O)n2)ccc1F` [Example 54, 3-[6-(4-fluoro-3-methoxy-phenoxy)pyrazin-2-yl]-5,5-dimethyl-imidazolidine-2,4-dione], the “Kv3.1 Activity at 10 μM Potentiation (%)” value came out at 15% and the “Kv3.1 Activity at 10 μM Voltage Shift (mV)” value is reported as −0.5 mV.
The corresponding values for `CC[C@H]1NC(=O)N(c2cc(Oc3ccc(C)c(OC)c3)ncn2)C1=O` [Example 55, (5R)-5-ethyl-3-[6-(3-methoxy-4-methyl-phenoxy)pyrimidin-4-yl]imidazolidine-2,4-dione] are 16% and −3.9 mV.
For the compound `CC[C@H]1NC(=O)N(c2nccc(Oc3ccc(C#N)cc3C(C)(C)C)n2)C1=O` [Example 57, 3-tert-butyl-4-[2-[(4R)-4-ethyl-2,5-dioxo-imidazolidin-1-yl]pyrimidin-4-yl]oxy-benzonitrile], the “Kv3.1 Activity at 10 μM Potentiation (%)” value is recorded as −7% and the “Kv3.1 Activity at 10 μM Voltage Shift (mV)” value is recorded as “+0.8 mV”.
For `CC[C@H]1NC(=O)N(c2ccnc(Oc3ccc(C)c(OC)c3)n2)C1=O` [Example 59, (5R)-5-ethyl-3-[2-(3-methoxy-4-methyl-phenoxy)pyrimidin-4-yl]imidazolidine-2,4-dione], the “Kv3.1 Activity at 10 μM Potentiation (%)” value worked out at 22% and the “Kv3.1 Activity at 10 μM Voltage Shift (mV)” value was −1.1 mV.
As for `COc1cc(Oc2ccnc(N3C(=O)NC(C)(C)C3=O)n2)ccc1C` [Example 60, 3-[4-(3-methoxy-4-methyl-phenox)pyrimidin-2-yl]-5,5-dimethyl-imidazolidine-2,4-dione], the “Kv3.1 Activity at 10 μM Potentiation (%)” value worked out at 22% and the “Kv3.1 Activity at 10 μM Voltage Shift (mV)” value is on record as −2.0 mV.
With `CC(C)c1cc(Oc2ccnc(N3C(=O)NC(C)(C)C3=O)n2)ccc1C#N` [Example 61, 4-[2-(4,4-dimethyl-2,5-dioxo-imidazolidin-1-yl)pyrimidin-4-yl]oxy-2-isopropyl-benzonitrile], the “Kv3.1 Activity at 10 μM Potentiation (%)” value came out at 21% and the “Kv3.1 Activity at 10 μM Voltage Shift (mV)” value is −1.6 mV.
In the case of `CC[C@@]1(C)NC(=O)N(c2ccnc(Oc3ccc(C)c(OC)c3)n2)C1=O` [Example 62, (5R)-5-ethyl-3-[2-(3-methoxy-4-methyl-phenoxy)pyrimidin-4-yl]-5-methyl-imidazolidine-2,4-dione], the “Kv3.1 Activity at 10 μM Potentiation (%)” value is recorded as 20% and the “Kv3.1 Activity at 10 μM Voltage Shift (mV)” value is recorded as −3.1 mV.
